Measured values: patent US8426429B2, “2-amino-quinazoline derivatives useful as inhibitors of β-secretase (BACE)” (Jansssen Pharmaceutica N.V., priority 2004, dated 2013)

Molecular target: T1, β-secretase (BACE) (Homo sapiens, UniProt P56817)
T1 construct: purchased Panvera
Test: BACE FS1 % Inhibition Assay
Format: biochemical
Settings: FS1 substrate
Method in brief: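 Percent inhibition per compound concentration was referenced to vehicle-treated enzyme and no-enzyme wells. Enzyme at a 4 μg/mL working stock plus compound was mixed for 20 min at room temperature before the FS1 substrate (300 μg/mL working stock) was added for a 1 h room-temperature reaction.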

T1 sequence (P56817 46-501): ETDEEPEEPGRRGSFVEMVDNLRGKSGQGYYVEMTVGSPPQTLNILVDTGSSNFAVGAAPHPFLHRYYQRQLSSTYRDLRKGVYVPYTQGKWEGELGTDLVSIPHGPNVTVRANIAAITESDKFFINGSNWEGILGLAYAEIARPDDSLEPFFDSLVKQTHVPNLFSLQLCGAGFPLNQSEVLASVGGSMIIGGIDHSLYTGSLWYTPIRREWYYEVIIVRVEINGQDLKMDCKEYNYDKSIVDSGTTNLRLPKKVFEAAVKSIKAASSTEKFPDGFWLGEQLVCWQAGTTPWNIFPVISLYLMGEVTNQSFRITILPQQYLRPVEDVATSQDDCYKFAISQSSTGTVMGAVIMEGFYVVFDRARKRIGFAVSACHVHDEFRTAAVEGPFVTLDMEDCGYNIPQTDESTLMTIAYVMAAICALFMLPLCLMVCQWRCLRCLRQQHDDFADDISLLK

Row | % Inhibition (FS) (0.3 μM compound) | % Inhibition (FS) (1 μM compound) | % Inhibition (FS) (3 μM compound) | SMILES
1 | 37% | <30% | <30% | CCCC(=O)NCCN1Cc2cc(-c3ccc4ccccc4c3)ccc2N=C1N [Compound 666]
2 | <30% | <30% | <30% | CC(C)CCC(=O)NCCN1Cc2cc(-c3ccc4ccccc4c3)ccc2N=C1N [Compound 668]
3 | <30% | <30% | 32% | CCCCC(CC)C(=O)NCCN1Cc2cc(-c3ccc4ccccc4c3)ccc2N=C1N (centres unmarked) [Compound 669]
4 | <30% | <30% | 44% | NC1=Nc2ccc(-c3cnc4ccccc4c3)cc2CN1CCNC(=O)C1CCC1 [Compound 670]
5 | <30% | 30% | <30% | NC1=Nc2ccc(-c3cnc4ccccc4c3)cc2CN1CCNC(=O)C1CCCC1 [Compound 671]
6 | 36% | <30% | 41% | CC(C)(C)C(=O)NCCN1Cc2cc(-c3cnc4ccccc4c3)ccc2N=C1N [Compound 674]
7 | 51% | 88% | 99% | Cc1ccccc1-c1ccc2c(c1)CN(CCNC(=O)CCC(F)(F)F)C(N)=N2 [Compound 678]
8 | 42% | 75% | 90% | NC1=Nc2ccc(-c3ccccc3F)cc2CN1CCNC(=O)CCC(F)(F)F [Compound 680]
9 | 33% | 38% | 78% | NC1=Nc2ccc(-c3ccccc3)cc2CN1CCNC(=O)CCC(F)(F)F [Compound 684]
10 | <30% | 73% | 80% | NC1=Nc2ccc(-c3ccc4ccccc4c3)cc2CN1CCNC(=O)CCC(F)(F)F [Compound 686]
11 | <30% | 36% | 81% | NC1=Nc2ccc(-c3ccccc3F)cc2CN1CCNC(=O)C1CCC(C(F)(F)F)CC1 (centres unmarked) [Compound 688]
12 | 33% | 82% |  | NC1=Nc2ccc(-c3ccccc3Cl)cc2CN1CCNC(=O)C1CCOCC1 [Compound 689]
13 | <30% | <30% | 52% | NC1=Nc2ccc(-c3ccccc3Cl)cc2CN1CCNC(=O)C1CCC(C(F)(F)F)CC1 (centres unmarked) [Compound 690]
14 | <30% | <30% | 84% | Cc1ccccc1-c1ccc2c(c1)CN(CCNC(=O)C1CCC(C(F)(F)F)CC1)C(N)=N2 (centres unmarked) [Compound 694]
15 | <30% | 72% |  | COC1CCCC(C(=O)NCCN2Cc3cc(-c4ccccc4C)ccc3N=C2N)C1 (centres unmarked) [Compound 696]
16 | <30% | <30% | 63% | COc1ccccc1-c1ccc2c(c1)CN(CCNC(=O)C1CCOCC1)C(N)=N2 [Compound 697]
17 | <30% | <30% | 64% | COc1ccccc1-c1ccc2c(c1)CN(CCNC(=O)C1CCC(C(F)(F)F)CC1)C(N)=N2 (centres unmarked) [Compound 698]
18 | 31% | 64% | 93% | COc1cccc(F)c1-c1ccc2c(c1)CN(CCNC(=O)C1CCOCC1)C(N)=N2 [Compound 699]
19 | <30% | <30% | 54% | NC1=Nc2ccc(-c3ccccc3)cc2CN1CCNC(=O)C1CCC(C(F)(F)F)CC1 (centres unmarked) [Compound 701]
20 | <30% | <30% | <30% | CC(=O)N1CCC(C(=O)NCCN2Cc3cc(-c4ccccc4)ccc3N=C2N)CC1 [Compound 702]
21 | <30% | 46% | 83% | COC1CCCC(C(=O)NCCN2Cc3cc(-c4ccccc4)ccc3N=C2N)C1 (centres unmarked) [Compound 703]
22 | <30% | <30% | <30% | COC1CCCC(C(=O)NCCN2Cc3cc(C4=CCCC4)ccc3N=C2N)C1 (centres unmarked) [Compound 706]
23 | 31% | <30% | 81% | COc1ccccc1-c1ccc2c(c1)CN([C@@H](CCC(=O)N(C)Cc1cc(-c3ccccc3)on1)C1CCCCC1)C(N)=N2 [Compound 719]

More lines, now with the values behind:

Row | SMILES | % Inhibition (FS) (0.3 μM compound) | % Inhibition (FS) (1 μM compound) | % Inhibition (FS) (3 μM compound)
24 | CC(C)(C)C(=O)NCCN1Cc2cc(-c3ccc4ccccc4c3)ccc2N=C1N [Compound 667] | 33% | <30% | <30%
25 | NC1=Nc2ccc(-c3cnc4ccccc4c3)cc2CN1CCNC(=O)C12CC3CC(CC(C3)C1)C2 [Compound 672] | <30% | <30% | <30%
26 | CCCC(=O)NCCN1Cc2cc(-c3cnc4ccccc4c3)ccc2N=C1N [Compound 673] | 34% | <30% | <30%
27 | CC(C)CCC(=O)NCCN1Cc2cc(-c3cnc4ccccc4c3)ccc2N=C1N [Compound 675] | 35% | <30% | <30%
28 | CCCCC(CC)C(=O)NCCN1Cc2cc(-c3cnc4ccccc4c3)ccc2N=C1N (centres unmarked) [Compound 676] | 33% | <30% | 44%
29 | Cc1ccccc1-c1ccc2c(c1)CN(CCNC(=O)CC(C)C(F)(F)F)C(N)=N2 (centres unmarked) [Compound 679] | 78% | 99% | 
30 | CC(CC(=O)NCCN1Cc2cc(-c3ccccc3F)ccc2N=C1N)C(F)(F)F (centres unmarked) [Compound 681] | 67% | 100% | 
31 | NC1=Nc2ccc(-c3ccccc3Cl)cc2CN1CCNC(=O)CCC(F)(F)F [Compound 682] | 39% | 77% | 97%
32 | CC(CC(=O)NCCN1Cc2cc(-c3ccccc3Cl)ccc2N=C1N)C(F)(F)F (centres unmarked) [Compound 683] | 64% | 86% | 
33 | CC(CC(=O)NCCN1Cc2cc(-c3ccccc3)ccc2N=C1N)C(F)(F)F (centres unmarked) [Compound 685] | 50% | 90% | 
34 | NC1=Nc2ccc(-c3ccccc3F)cc2CN1CCNC(=O)C1CCOCC1 [Compound 687] | <30% | 50% | 87%
35 | CC(=O)N1CCC(C(=O)NCCN2Cc3cc(-c4ccccc4Cl)ccc3N=C2N)CC1 [Compound 691] | <30% | <30% | 51%
36 | CC(=O)N1CCC(C(=O)NCCN2Cc3cc(-c4ccccc4C)ccc3N=C2N)CC1 [Compound 695] | <30% | <30% | 54%
37 | COc1cccc(F)c1-c1ccc2c(c1)CN(CCNC(=O)C1CCC(C(F)(F)F)CC1)C(N)=N2 (centres unmarked) [Compound 700] | <30% | 36% | 85%
38 | NC1=Nc2ccc(C3=CCCCC3)cc2CN1CCNC(=O)C1CCC(C(F)(F)F)CC1 (centres unmarked) [Compound 704] | <30% | <30% | <30%
39 | CC(=O)N1CCC(C(=O)NCCN2Cc3cc(C4=CCCCC4)ccc3N=C2N)CC1 [Compound 705] | <30% | <30% | <30%
40 | NC1=Nc2ccc(C3=CCCC3)cc2CN1CCNC(=O)C1CCC(C(F)(F)F)CC1 (centres unmarked) [Compound 707] | <30% | <30% | <30%
41 | COc1ccccc1-c1ccc2c(c1)CN([C@@H](CCC(=O)N(C)Cc1csc(-c3ccccc3)n1)C1CCCCC1)C(N)=N2 [Compound 716] | <30% | <30% | 72%
42 | COc1ccccc1-c1ccc2c(c1)CN([C@@H](CCC(=O)N(C)Cc1cnn(-c3ccccc3)c1)C1CCCCC1)C(N)=N2 [Compound 717] | 33% | 39% | 72%
43 | COc1ccccc1-c1ccc2c(c1)CN([C@@H](CCC(=O)N(C)Cc1cc(C)no1)C1CCCCC1)C(N)=N2 [Compound 718] | <30% | 30% | 
